Measured values published in PubChem BioAssay AID2060492 (Molecular Pharmacology Branch, DTP, NCI, 2025).

System: 695427-040-R-J1-PDC complex spheroids, viability percent T/C
Assay: Anticancer human tumor 695427-040-R-J1-PDC patient-derived colon adenocarcinoma cell line growth inhibition [GQUAD]
Conditions: for IC50: curve of first compound; for viability, T/C: stronger effect = lower value
How it was run: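 Tumor cells were grown as complex spheroids with HUVEC endothelial cells and mesenchymal stem cells as stroma. G-quadruplex stabilizers were combined with targeted agents over half-log dilutions from near the clinical Cmax, or from 10 microM.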

[1] = second compound 0.0316 µM, first compound 0.000999 µM
[2] = second compound 0.0316 µM, first compound 0.00316 µM
[3] = second compound 0.0316 µM, first compound 0.00999 µM
[4] = second compound 0.0316 µM, first compound 0.0316 µM
[5] = second compound 0.0316 µM, first compound 0.0999 µM
[6] = second compound 0.0316 µM, first compound 0.316 µM
[7] = second compound 0.1 µM, first compound 0.000999 µM
[8] = second compound 0.1 µM, first compound 0.00316 µM
[9] = second compound 0.1 µM, first compound 0.00999 µM
[10] = second compound 0.1 µM, first compound 0.0316 µM
[11] = second compound 0.1 µM, first compound 0.0999 µM
[12] = second compound 0.1 µM, first compound 0.316 µM
[13] = second compound 0.316 µM, first compound 0.000999 µM
[14] = second compound 0.316 µM, first compound 0.00316 µM
[15] = second compound 0.316 µM, first compound 0.00999 µM
[16] = second compound 0.316 µM, first compound 0.0316 µM
[17] = second compound 0.316 µM, first compound 0.0999 µM
[18] = second compound 0.316 µM, first compound 0.316 µM
[19] = second compound 1 µM, first compound 0.000999 µM
[20] = second compound 1 µM, first compound 0.00316 µM
[21] = second compound 1 µM, first compound 0.00999 µM
[22] = second compound 1 µM, first compound 0.0316 µM
[23] = second compound 1 µM, first compound 0.0999 µM
[24] = second compound 1 µM, first compound 0.316 µM
[25] = second compound 3.16 µM, first compound 0.000999 µM
[26] = second compound 3.16 µM, first compound 0.00316 µM
[27] = second compound 3.16 µM, first compound 0.00999 µM
[28] = second compound 3.16 µM, first compound 0.0316 µM
[29] = second compound 3.16 µM, first compound 0.0999 µM
[30] = second compound 3.16 µM, first compound 0.316 µM
[31] = second compound 10 µM, first compound 0.000999 µM
[32] = second compound 10 µM, first compound 0.00316 µM
[33] = second compound 10 µM, first compound 0.00999 µM
[34] = second compound 10 µM, first compound 0.0316 µM
[35] = second compound 10 µM, first compound 0.0999 µM
[36] = second compound 10 µM, first compound 0.316 µM
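Note: spheroids exposed to compounds for seven days before readout.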

CCc1c2c(nc3ccc(O)cc13)-c1cc3c(c(=O)n1C2)COC(=O)[C@]3(O)CC + Cc1cnc(CNC(=O)c2c(=O)c3ccc(N4CCCN(C)CC4)nc3n3c2sc2ccccc23)cn1
IC50 (second compound 0.0316 µM): 81.3 nM | IC50 (second compound 0.1 µM): 49 nM | IC50 (second compound 0.316 µM): 27.3 nM | IC50 (second compound 1 µM): 26.1 nM | IC50 (second compound 3.16 µM): 3.02 nM | IC50 (second compound 10 µM): < 0.999 nM | viability, T/C [1]: 82.6% | viability, T/C [2]: 75.7% | viability, T/C [3]: 81.1% | viability, T/C [4]: 57.9% | viability, T/C [5]: 50.1% | viability, T/C [6]: 34.5% | viability, T/C [7]: 91.4% | viability, T/C [8]: 68.6% | viability, T/C [9]: 73.2% | viability, T/C [10]: 47.5% | viability, T/C [11]: 47.5% | viability, T/C [12]: 33.8% | viability, T/C [13]: 85.3% | viability, T/C [14]: 57% | viability, T/C [15]: 63.6% | viability, T/C [16]: 49.8% | viability, T/C [17]: 43.2% | viability, T/C [18]: 31.1% | viability, T/C [19]: 66.1% | viability, T/C [20]: 63.6% | viability, T/C [21]: 53.1% | viability, T/C [22]: 47.7% | viability, T/C [23]: 40.4% | viability, T/C [24]: 19.1% | viability, T/C [25]: 55.1% | viability, T/C [26]: 47.3% | viability, T/C [27]: 44.8% | viability, T/C [28]: 38.9% | viability, T/C [29]: 31.2% | viability, T/C [30]: 7.33% | viability, T/C [31]: 39.7% | viability, T/C [32]: 33.7% | viability, T/C [33]: 40.2% | viability, T/C [34]: 37.7% | viability, T/C [35]: 9.89% | viability, T/C [36]: 0.52%

Cc1[nH]c2ccccc2c1CCNCc1ccc(/C=C/C(=O)NO)cc1 + CN(C)c1ccc(Nc2c3ccc(NC(=O)CCN4CCCC4)cc3nc3cc(NC(=O)CCN4CCCC4)ccc23)cc1
IC50 (second compound 0.0316 µM): > 316 nM | IC50 (second compound 0.1 µM): > 316 nM | IC50 (second compound 0.316 µM): > 316 nM | IC50 (second compound 1 µM): > 316 nM | IC50 (second compound 3.16 µM): > 316 nM | IC50 (second compound 10 µM): > 316 nM | viability, T/C [1]: 105% | viability, T/C [2]: 111% | viability, T/C [3]: 106% | viability, T/C [4]: 101% | viability, T/C [5]: 106% | viability, T/C [6]: 72.2% | viability, T/C [7]: 119% | viability, T/C [8]: 93.9% | viability, T/C [9]: 112% | viability, T/C [10]: 99.3% | viability, T/C [11]: 97.3% | viability, T/C [12]: 69.7% | viability, T/C [13]: 98.2% | viability, T/C [14]: 97.5% | viability, T/C [15]: 95.2% | viability, T/C [16]: 96.5% | viability, T/C [17]: 105% | viability, T/C [18]: 78.4% | viability, T/C [19]: 97.8% | viability, T/C [20]: 106% | viability, T/C [21]: 98.8% | viability, T/C [22]: 108% | viability, T/C [23]: 98% | viability, T/C [24]: 68% | viability, T/C [25]: 93.4% | viability, T/C [26]: 101% | viability, T/C [27]: 101% | viability, T/C [28]: 92.8% | viability, T/C [29]: 86.8% | viability, T/C [30]: 61.1% | viability, T/C [31]: 87.5% | viability, T/C [32]: 85.9% | viability, T/C [33]: 94.7% | viability, T/C [34]: 82.6% | viability, T/C [35]: 91.1% | viability, T/C [36]: 61.1%
